Experimental data reported in patent publication US20230310416A1, “SUSPENSION OF TRIAZOLE ANTIFUNGAL DRUG FOR ATOMIZER” (SHANGHAI FRONTIER HEALTH PHARMACEUTICAL TECHNOLOGY CO., LTD, priority 2020, published 2023).

System: bleomycin-induced idiopathic pulmonary fibrosis in mice
Experiment: Mouse model of pulmonary fibrosis induced by bleomycin, inhalation versus oral administration
Assay type: in vivo, ICR mice
Settings: once a day for 22 days
Protocol: In order to investigate the efficacy of itraconazole suspension of the present invention by inhalation administration, a mouse model of pulmonary fibrosis induced by bleomycin 2 mg/kg/mouse was established and compared with that by oral administration.
Test animals: ICR mice: SPF grade, body weight 22-24 g, male.
Test drugs: itraconazole suspension prepared in Example 3
Model establishment: 2 mg/kg of bleomycin hydrochloride for injection was sprayed into the respiratory tract of each mouse to induce pulmonary fibrosis, 4 weeks later, a mouse pulmonary fibrosis model was established.
Animal grouping: Mice were randomly divided into 4 groups, namely a blank control group, a model group, an itraconazole inhalation group, in which 2.5 mg/kg was inhaled for 3 minutes (2.5 mg/kg Inhalation group) and an itraconazole oral group, in which 15 mg/kg was orally administrated(15 mg/kg Oral group). The drugs were administered once a day for 22 consecutive days from the fifth day after modeling.
Detecting indexes: the mice were sacrificed after administration, the trachea was separated, the left lung was ligated, the bronchoalveolar lavage (BAL) was performed, the bronchoalveolar lavage fluid (BALF) was taken for white cell count and classification count, after the lung tissue was fixed with formalin, paraffin embedding, sectioning, H & E staining and Masson’s staining were carried out. The contents of transforming growth factor (TGF- β 1), mouse type I collagen (Col I) and hydroxyproline in lung tissue in supernatant of the BALF were detected by a kit.

`CCC(C)n1ncn(-c2ccc(N3CCN(c4ccc(OCC5COC(Cn6cncn6)(c6ccc(Cl)cc6Cl)O5)cc4)CC3)cc2)c1=O` (stereo not drawn) [itraconazole] was tested, and the “Collagen deposition in lung tissue” value (2.5 mg/kg inhalation) was 62759.9±17865.8, the “Content of Col I in BALF” value (2.5 mg/kg inhalation) was 1.64 ± 0.64 ng/mL and the “Content of TGF-β1 in BALF” value (2.5 mg/kg inhalation) was 32.13 ± 25.97 pg/mL. The “Content of hydroxyproline in lung tissue” value (2.5 mg/kg inhalation) was 526.7 ±66.0 µg/g tissue, the “Number of neutrophils in BALF” value (2.5 mg/kg inhalation) was 12.08±5.85 1 × 10^4 cell/ml and the “Total number of white blood cells in BALF” value (2.5 mg/kg inhalation) was 26.13 ±5.93 1 × 10^4 cell/ml. For the same molecule, the “Collagen deposition in lung tissue” value (15 mg/kg oral) was 166628.8±35819.8, the “Content of Col I in BALF” value (15 mg/kg oral) was 1.91 ± 0.86 ng/mL and the “Content of TGF-β1 in BALF” value (15 mg/kg oral) was 24.79 ± 12.72 pg/mL. For the same molecule, the “Content of hydroxyproline in lung tissue” value (15 mg/kg oral) was 583.8 ±96.6 µg/g tissue, the “Number of neutrophils in BALF” value (15 mg/kg oral) was 13.71 ±7.58 1 × 10^4 cell/ml and the “Total number of white blood cells in BALF” value (15 mg/kg oral) was 29.13±10.99 1 × 10^4 cell/ml.
